Measurements: article PMC12794274, “Therapeutic potential of Sheng-Xian-Tang in doxorubicin-induced chronic heart failure by regulation of phenylalanine metabolism disruption” (Chinese Medicine, 2026)
Where “and” joins values, the source holds several entries; their conditions need not be identical. Equal entries are not always repeated.

Tests used:
[1] = tested on: cardiac tissues of DOX-induced CHF rats; assay: Heart histopathology (H&E, Masson) and TUNEL apoptosis detection; assay type: in vivo, rat; conditions: DOX group
Description: Cardiac tissues were fixed in 4% paraformaldehyde, embedded in paraffin, and sectioned at 4–5 μm thickness. Hematoxylin and eosin (H&E) staining was performed to assess histopathological changes, while Masson’s trichrome staining was used to evaluate cardiac fibrosis. Apoptosis in cardiac tissues was detected using a TUNEL assay kit (C1088, Beyotime, Shanghai, China).

Rat body weight = assay type: in vivo; conditions: DOX group vs CON group, experiment I
Description: Experiment I, 48 rats were randomly divided into six groups: (1) the CON group; (2) the DOX group; (3) the DOX + enalapril (ENP, positive control, 1.8 mg/kg) group; (4) the DOX + SXT at low dose group (4 g/kg); (5) the DOX + SXT at middle dose group (8 g/kg); and […] the DOX + SXT at high dose group (16 g/kg). Except those rats in the CON group, the remaining rats received DOX at a 2.5 mg/kg per injection to a cumulative dose of 15 mg/kg. The dose of SXT for the low-dose group was set at 4 g/kg, based on the minimum human clinical daily dose (48.5 g, Table S2) converted to an equivalent rat dose using body surface area normalization (48.5 g/70 kg × 6.3 ≈ 4.4 g/kg, rounded to 4 g/kg). To evaluate a clear dose–response relationship, the medium and high doses were established at 8 g/kg and 16 g/kg, respectively, corresponding to 2 fold and 4 fold the low dose. […] Heart function was monitored by echocardiography analysis at day 39, and the CHF model was considered to be successfully established when the left ventricular ejection fraction (LVEF%) values were reduced to 50%. […]

[2] = tested on: urinary metabolites of DOX-induced CHF rats; assay: Urine metabolomics (UHPLC-Q-TOF/MS); assay type: in vivo, rat
Description: Urine samples (200 μL) were mixed with 200 μL of protein precipitant (methanol: acetonitrile, 1:1) and vortexed for 30 s at 4 °C. Samples were sonicated for 10 min in an ice bath, then incubated at – 20 °C for 1 h. After centrifugation at 13,000 rpm for 15 min at 4 °C, 200 μL of supernatant was transferred to sample vials for analysis. A pooled quality control (QC) sample was prepared by combining 10 μL of supernatant from each sample. Sample analysis was performed using a Waters H-Class UPLC system coupled to a Triple TOF 6600 mass spectrometer (AB SCIEX, USA). Chromatographic separation was achieved on an ACQUITY UPLC HSS T3 column (2.1 × 100 mm, 1.7 μm; Waters) using 0.1% formic acid in water (mobile phase A) and acetonitrile (mobile phase B). […] Mass spectrometry was performed in both positive and negative ionization modes. Key parameters included: ion spray voltage, 5500/− 4500 V; m/z range, 60–1000; gas 1 and 2, 60 psi; curtain gas, 35 psi; accumulation time, 1.2 s; source temperature, 550 °C; declustering potential, 60 V. Information-dependent acquisition (IDA) was used with the following settings: m/z range, 50–1000; accumulation time, 0.05 s; collision energy, 40 ± 20 V. Data processing was performed using XC-MS plus software for peak alignment, extraction, and normalization. Metabolite identification was carried out using the MetDNA database. Multivariate statistical analysis, including principal component analysis (PCA) and orthogonal partial least squares discriminant analysis (OPLS-DA), was conducted using MetaboAnalyst 5.0. Differential metabolites were identified based on variable importance in projection (VIP) scores > 1.0 and P < 0.05. Fold change (FC) values were used to determine up- or down-regulation. Metabolic pathway analysis was performed using MetaboAnalyst 5.0, with significance set at P < 0.05.

AML12 cells = assay type: cell-based, mouse
Description: (§1) Mouse hepatocellular cell lines (AML12), purchased from the Shanghai Cell Bank of Chinese Academy of Sciences (Shanghai, China), were cultured in Dulbecco’s Modified Eagle Medium (DMEM) supplemented with 10% fetal bovine serum (FBS) and 2 mM L-glutamine and 1% pyruvate and maintained at 37 °C in a […], 5% CO2 incubator. Cells were seeded at a density of 5 × 10^5 cells/well in 6-well plates. […] Cells’ survival rate was detected by Cell Counting Kit-8 (CCK8) Reagents (Thermo Scientific, Singapore).

[3] = tested on: DOX-induced chronic heart failure (CHF) rat model; assay: Echocardiography (LVEF%, LVFS%) in DOX-induced CHF rats; assay type: in vivo; conditions: DOX group, cumulative 15 mg/kg, day 39
Description: Experiment I, 48 rats were randomly divided into six groups: (1) the CON group; (2) the DOX group; (3) the DOX + enalapril (ENP, positive control, 1.8 mg/kg) group; (4) the DOX + SXT at low dose group (4 g/kg); (5) the DOX + SXT at middle dose group (8 g/kg); and […] the DOX + SXT at high dose group (16 g/kg). Except those rats in the CON group, the remaining rats received DOX at a 2.5 mg/kg per injection to a cumulative dose of 15 mg/kg. The dose of SXT for the low-dose group was set at 4 g/kg, based on the minimum human clinical daily dose (48.5 g, Table S2) converted to an equivalent rat dose using body surface area normalization (48.5 g/70 kg × 6.3 ≈ 4.4 g/kg, rounded to 4 g/kg). To evaluate a clear dose–response relationship, the medium and high doses were established at 8 g/kg and 16 g/kg, respectively, corresponding to 2 fold and 4 fold the low dose. This gradient dosing strategy is consistent with the Technical Guidelines for Pharmacodynamic Studies of Traditional Chinese Medicine and the Technical Guidelines for General Pharmacology Studies of Traditional Chinese Medicine and Natural Drugs, and is further supported by our previous study on the effective dose range of SXT in a rat model of doxorubicin-induced chronic heart failure. Heart function was monitored by echocardiography analysis at day 39, and the CHF model was considered to be successfully established when the left ventricular ejection fraction (LVEF%) values were reduced to 50%. Urinary samples were collected at five time points (0, 10, 20, 30, and 39 d), while fecal samples were collected before the rats were euthanized. Subsequently, the rats were anesthetized, and blood samples and heart and liver tissues were collected. All bio-samples were stored at − 80 °C until analysis.
Experiment II was conducted to specifically confirm the exacerbated cardiac abnormality of phenylalanine in the DOX-induced CHF rats. […] Heart function was detected as in the experiment I.
Echocardiographic (ECG) measurements were performed using M-mode tracings and continuous Doppler with a Vevo 2100 system (Visual Sonics, Toronto, ON, Canada). Rats were anesthetized with isoflurane prior to imaging. Cardiac function indices including left ventricular ejection fraction (LVEF%) and left ventricular fractional shortening (LVFS%) were measured and recorded.

[4] = tested on: PAH activity in AML12 cells; assay type: cell-based
Description: Serum biochemical parameters including brain natriuretic peptide (BNP), creatine kinase (CK), lactate dehydrogenase (LDH), alanine aminotransferase (ALT), and aspartate aminotransferase (AST) were measured using commercial ELISA kits (Nanjing Jiancheng Bioengineering Institute, Nanjing, China) according to the manufacturer’s instructions. Superoxide dismutase (SOD), and malondialdehyde (MDA) levels in liver and heart tissues were measured using assay kits from Aifang Biotechnology (Changsha, China). Phenylalanine and tyrosine concentrations in the cell were determined using an ELISA kit from Abmart (Shanghai, China).
as §1

gut microbiota = assay: 16S rRNA sequencing of gut microbiota; assay type: in vivo, rat; conditions: DOX group vs CON group
Description: 16S rRNA sequencing and bioinformatics analysis were performed by OEbiotech Co. Ltd. (Shanghai, China). Total genomic DNA was extracted from cecal contents. The V3–V4 hypervariable region of the 16S rRNA gene was amplified using primers 343F and 798R. Clean reads were processed to remove primer sequences and clustered into operational taxonomic units (OTUs) at 97% similarity using Vsearch software. OTUs were annotated by comparison against the […]. Alpha diversity was assessed using the Simpson index. Beta diversity was evaluated using Bray–Curtis distances and visualized by principal coordinates analysis (PCoA). Differential abundance analysis of gut microbiota associated with DOX-induced CHF was performed using linear discriminant analysis effect size (LEfSe) and random forest algorithms.

**Q.** Which results are given for `COc1cccc2c1C(=O)c1c(O)c3c(c(O)c1C2=O)C[C@@](O)(C(=O)CO)C[C@@H]3O[C@H]1C[C@H](N)[C@H](O)[C@H](C)O1` [DOX, Doxorubicin]?
**A.** H&E and Masson's trichrome staining of cardiac tissue [1]: inflammatory infiltration and increased collagen deposition; body weight (Rat body weight): significant reduction; urinary levels of 4-(2-aminophenyl)-2,4-dioxobutanoate, hippurate, phenylacetylglycine, 5-methoxyindoleacetate, phenylpyruvate, and phenylalanine ([2]; DOX group vs CON group): significantly increased; urinary levels of indole-3-acetaldehyde, urea, anthranilate, indoleacetic acid, tryptamine, N-acetyl-L-glutamate, tyrosine, and glutamate ([2]; DOX group vs CON group): significantly decreased; urinary phenylalanine level ([2]; day 10 after DOX administration, P < 0.001): sharp increase; MDA levels (AML12 cells): increase; SOD activity (AML12 cells): significant reduction; LVFS [3]: < 30% and 25.62%; phenylalanine levels in AML12 cells [4]: significant increases; phenylalanine metabolism (Phe level, Phe/Tyr ratio) ([4]; AML12 cells, DOX vs CON, neomangiferin vs DOX, dose-dependent): significantly suppressed; Muribaculaceae abundance (gut microbiota): decreased; relative abundance of Proteobacteria (gut microbiota; p < 0.01): significantly increased
